Assay results: a compilation of properties of binary mixtures (doi:10.1016/j.jct.2008.09.001)

Test: xn = mol fraction of the nth substance listed
Conditions: 101.3 kPa

CCCCCCCC[n+]1ccccc1.F[B-](F)(F)F + O
viscosity [mPa·s]
Conditions | x2 = 0 | x2 = 0.1 | x2 = 0.184 | x2 = 0.324 | x2 = 0.477 | x2 = 0.562 | x2 = 0.67 | x2 = 0.758 | x2 = 0.783
283.15 K | 640 | 404 | 261 | 161.4 | 116.4 | 63.8 | 65.55 | 51.8 | 54.27
288.15 K | – | – | – | – | – | 49.84 | – | – | 38.63
293.15 K | 320 | – | – | – | 69.9 | 39.6 | 40.42 | 28.74 | 29.21
298.15 K | 234 | 159.1 | 112.3 | 72 | 55.07 | 31.77 | – | – | 22.73
303.15 K | 171.9 | 122.5 | 86 | 57.88 | 44.37 | 26.47 | 26.82 | 19.17 | 18.09
308.15 K | – | 96.2 | 68.3 | 47.09 | 36.11 | – | 22.27 | 15.97 | –
313.15 K | 105.7 | 71.5 | 54.93 | 38.75 | 30.19 | – | – | 13.56 | 12.78
318.15 K | – | 57.41 | 44.98 | – | 25.23 | 16.88 | 15.98 | 11.52 | 11.08
323.15 K | 64.89 | 46.73 | 37.06 | – | 21.39 | – | 13.65 | 9.95 | 9.39
328.15 K | 53.52 | – | – | 23.23 | 18.15 | 12.05 | 11.88 | – | 8.2
333.15 K | – | – | – | 19.92 | 15.84 | 10.61 | 10.38 | – | 7.17
338.15 K | 38.1 | 27.06 | 22.38 | 17.32 | 13.44 | – | – | 6.75 | 6.31
343.15 K | 32.38 | 23.06 | 19.25 | – | 11.58 | 8.15 | – | 5.99 | 5.58
348.15 K | – | 19.83 | 16.71 | 13.13 | – | 7.17 | 7.19 | 5.29 | 4.97
353.15 K | 24.05 | – | – | – | – | – | – | – | –

CCCC[n+]1ccccc1.F[B-](F)(F)F + O
viscosity [mPa·s]
Conditions | x2 = 0 | x2 = 0.11 | x2 = 0.263 | x2 = 0.391 | x2 = 0.414 | x2 = 0.549 | x2 = 0.637 | x2 = 0.724 | x2 = 0.856
283.15 K | 464 | 211 | – | 44.9 | 41.27 | 22.77 | – | – | 5.53
288.15 K | 313 | – | 60.2 | – | 32.98 | 18.49 | – | – | 4.58
293.15 K | 223 | 115.6 | 47.4 | 29.05 | 26.81 | 15.37 | 10.82 | 7.61 | 3.88
298.15 K | 163.3 | 88.1 | 38.1 | 23.97 | 22.21 | 12.99 | 9.16 | – | 3.36
303.15 K | 123 | – | 31.12 | 20.01 | 18.63 | – | 8 | 5.65 | 2.94
308.15 K | 94.2 | 53.4 | 25.87 | 16.93 | 15.81 | 9.61 | 7.01 | 4.92 | 2.6
313.15 K | 70.3 | 43.2 | 21.69 | 14.51 | 13.58 | – | 6.13 | – | 2.32
318.15 K | 55.8 | 35.5 | 18.48 | 12.53 | 11.77 | 7.41 | 5.43 | 3.85 | 2.09
323.15 K | 45.1 | 29.49 | 15.87 | 10.93 | 10.22 | 6.57 | 4.78 | 3.46 | 1.9
328.15 K | 37.1 | – | 13.77 | 9.58 | 9.06 | 5.86 | 4.29 | – | 1.74
333.15 K | 30.9 | 21.18 | 12.04 | 8.6 | – | 5.19 | 3.87 | 2.82 | 1.61
338.15 K | 26.01 | 18.21 | 10.57 | 7.71 | 7.17 | 4.68 | – | 2.58 | 1.5
343.15 K | 22.17 | – | – | – | 6.37 | 4.24 | 3.22 | 2.37 | 1.4
353.15 K | 15.84 | – | – | – | – | – | – | – | –
